Legend:
Experiment in all cases: relative viability (nuclei count vs DMSO), 5 days (fraction); higher = more cells survive
[1] = compound: CC1=C(C(=NN1)C)CC2=C(C3=C(S2)N(C(=O)N(C3=O)C)CC(C)C)C(=O)N4C[C@@H](CO4)O + C[C@@H](Oc1cc(-c2cnn(C3CCNCC3)c2)cnc1N)c1c(Cl)ccc(F)c1Cl [Crizotinib] (partner 1 µM)
In short: (§1)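 After 5 days of treatment, lung cancer cells in 1536-well plates were fixed and stained in a single step (final 0.05% Triton X-100, 1% formaldehyde, 1 ug/ml Hoechst) and their nuclei counted on 4× images. Treatment had been applied by pin tool the day after seeding as one drug alone or as a fixed anchor-drug dose with five library-drug doses (not always all listed) in √10 steps. Relative viability is the nuclei count of treated wells divided by that of vehicle wells, and values are medians of duplicate plates.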

IDH-C35 + Dasatinib = compound: Cc1ccccc1C(C(=O)NC1CCCCC1)N(C(=O)Cn1ccnc1C)c1cccc(F)c1 [IDH-C35] + Cc1nc(Nc2ncc(C(=O)Nc3c(C)cccc3Cl)s2)cc(N2CCN(CCO)CC2)n1 [Dasatinib] (partner 0.075 µM)
In short: as §1

IDH-C35 + Luminespib = compound: Cc1ccccc1C(C(=O)NC1CCCCC1)N(C(=O)Cn1ccnc1C)c1cccc(F)c1 [IDH-C35] + CCNC(=O)c1noc(-c2cc(C(C)C)c(O)cc2O)c1-c1ccc(CN2CCOCC2)cc1 [Luminespib] (partner 0.01 µM)
In short: as §1

IDH-C35 + Navitoclax = compound: Cc1ccccc1C(C(=O)NC1CCCCC1)N(C(=O)Cn1ccnc1C)c1cccc(F)c1 [IDH-C35] + CC1(C)CCC(c2ccc(Cl)cc2)=C(CN2CCN(c3ccc(C(=O)NS(=O)(=O)c4ccc(N[C@H](CCN5CCOCC5)CSc5ccccc5)c(S(=O)(=O)C(F)(F)F)c4)cc3)CC2)C1 [Navitoclax] (partner 0.5 µM)
In short: as §1

Cell Line | relative viability ([1]; first compound 0.0025 µM) | relative viability ([1]; first compound 0.007906 µM) | relative viability ([1]; first compound 0.025 µM) | relative viability ([1]; first compound 0.07906 µM) | relative viability ([1]; first compound 0.25 µM) | relative viability (IDH-C35 + Dasatinib; first compound 0.08 µM) | relative viability (IDH-C35 + Dasatinib; first compound 0.253 µM) | relative viability (IDH-C35 + Dasatinib; first compound 0.8 µM) | relative viability (IDH-C35 + Dasatinib; first compound 2.53 µM) | relative viability (IDH-C35 + Dasatinib; first compound 8 µM) | relative viability (IDH-C35 + Luminespib; first compound 0.08 µM) | relative viability (IDH-C35 + Luminespib; first compound 0.253 µM) | relative viability (IDH-C35 + Luminespib; first compound 0.8 µM) | relative viability (IDH-C35 + Luminespib; first compound 2.53 µM) | relative viability (IDH-C35 + Luminespib; first compound 8 µM) | relative viability (IDH-C35 + Navitoclax; first compound 0.08 µM) | relative viability (IDH-C35 + Navitoclax; first compound 0.253 µM) | relative viability (IDH-C35 + Navitoclax; first compound 0.8 µM) | relative viability (IDH-C35 + Navitoclax; first compound 2.53 µM) | relative viability (IDH-C35 + Navitoclax; first compound 8 µM)
NCI-H1734 | 0.773 | 0.517 | 0.641 | 0.614 | 0.562 | 0.469 | 0.524 | 0.511 | 0.458 | 0.419 | 0.193 | 0.215 | 0.214 | 0.19 | 0.191 | 0.9 | 0.849 | 0.827 | 0.796 | 0.791
NCI-H1755 | 0.876 | 0.952 | 0.941 | 0.877 | 0.967 | 0.374 | 0.409 | 0.433 | 0.409 | 0.465 | 0.535 | 0.365 | 0.454 | 0.412 | 0.715 | 0.981 | 1.01 | 0.973 | 0.976 | 0.96
NCI-H1792 | 1.04 | 0.976 | 0.901 | 0.855 | 0.786 | 0.725 | 0.728 | 0.473 | 0.944 | 0.815 | 0.477 | 0.473 | 0.499 | 0.413 | 0.493 | 0.637 | 0.593 | 0.619 | 0.621 | 0.646
NCI-H1915 | 0.959 | 0.92 | 0.836 | 0.884 | 1.01 | 0.328 | 0.308 | 0.304 | 0.326 | 0.309 | 0.787 | 0.715 | 0.755 | 0.815 | 0.747 | 0.772 | 0.753 | 0.759 | 0.729 | 0.767
NCI-H1944 | 1.15 | 1.25 | 1.15 | 1.06 | 1.08 | 0.233 | 0.228 | 0.211 | 0.228 | 0.211 | 0.79 | 0.715 | 0.656 | 0.681 | 0.763 | 1.02 | 1.04 | 0.942 | 1.05 | 1.04
NCI-H1975 | 0.942 | 1 | 1 | 0.869 | 1.08 | 0.35 | 0.42 | 0.366 | 0.483 | 0.346 | 0.165 | 0.244 | 0.206 | 0.276 | 0.135 | 1.12 | 1.34 | 1.03 | 1.09 | 1.01
NCI-H1993 | 1.07 | 0.901 | 0.965 | 0.853 | 0.932 | 0.654 | 0.53 | 0.577 | 0.559 | 0.621 | 0.793 | 0.882 | 0.914 | 0.836 | 0.936 | 0.943 | 0.878 | 0.919 | 1.1 | 1.13
NCI-H2009 | 0.966 | 1.03 | 1.06 | 1.09 | 1.11 | 0.309 | 0.33 | 0.341 | 0.311 | 0.303 | 1.08 | 1.01 | 0.999 | 0.921 | 1.01 | 1.22 | 1.16 | 1.12 | 1.17 | 1.16
NCI-H2023 | 0.76 | 0.731 | 0.705 | 0.691 | 0.659 | 0.59 | 0.549 | 0.673 | 0.517 | 0.559 | 0.617 | 0.769 | 0.854 | 0.722 | 0.506 | 1.09 | 1.01 | 0.979 | 0.962 | 1.1
NCI-H2085 | 0.923 | 0.726 | 0.8 | 0.89 | 0.862 | 0.275 | 0.261 | 0.223 | 0.277 | 0.266 | 0.352 | 0.458 | 0.519 | 0.428 | 0.416 | 1.21 | 1.25 | 1.15 | 1.14 | 1.21
NCI-H2087 | 0.822 | 0.804 | 0.927 | 0.923 | 0.937 | 0.944 | 0.995 | 0.9 |  | 0.814 | 0.105 | 0.141 | 0.164 |  | 0.128 | 1.13 | 1.02 | 0.896 | 0.867 | 0.999
NCI-H2126 | 1.05 | 1.02 | 1.01 | 1 | 1.02 | 0.6 | 0.651 | 0.596 | 0.605 | 0.588 | 0.841 | 0.858 | 0.892 | 0.897 | 0.883 | 0.906 | 0.864 | 0.849 | 0.866 | 0.857
NCI-H2170 | 1.19 | 1.37 | 1.24 | 1.13 | 1.26 | 0.542 | 0.594 | 0.594 | 0.678 | 0.538 | 0.678 | 0.799 | 0.684 | 0.687 | 0.72 | 0.626 | 0.535 | 0.595 | 0.479 | 0.627
NCI-H2228 | 0.421 | 0.523 | 0.473 | 0.505 | 0.469 | 0.571 | 0.526 | 0.509 | 0.53 | 0.537 | 0.213 | 0.152 | 0.111 | 0.184 | 0.155 | 0.915 | 1.18 | 1.29 | 0.875 | 0.706
NCI-H2347 | 0.834 | 0.813 | 0.801 | 0.621 | 0.875 | 0.337 | 0.3 | 0.243 | 0.343 | 0.282 | 0.653 | 0.575 | 0.48 | 0.508 | 0.369 | 0.766 | 0.765 | 0.801 | 0.851 | 0.742
